Laboratory results: PubChem BioAssay (NCI)
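A five-concentration, 48-hour dose response in 96-well plates underlies each endpoint, interpolated linearly between surrounding concentrations. At the TGI there is no net growth.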 Where a SMILES comes first, the peptide text is derived from it. Bridges are numbered along the chain shown (N, C = ends). [ ]: non-standard residue; d: D form. The star is where a group is joined. ξ: configuration not given here. PhAc = O=C(Cc1ccccc1)*; ξP = O=C(O)C1CCCN1

Experiments:
Assay in all cases: NCI anticancer screen, dose series, 48 h
786-0 renal = tested on: 786-0 renal
A498 renal = tested on: A498 renal
A549 NSCLC = tested on: A549 NSCLC
ACHN renal = tested on: ACHN renal
CAKI-1 renal = tested on: CAKI-1 renal
CCRF-CEM leukemia = tested on: CCRF-CEM leukemia
COLO 205 colon = tested on: COLO 205 colon
DU-145 prostate = tested on: DU-145 prostate
EKVX NSCLC = tested on: EKVX NSCLC
HCC-2998 colon = tested on: HCC-2998 colon
HCT-116 colon = tested on: HCT-116 colon
HCT-15 colon = tested on: HCT-15 colon
HL-60(TB) leukemia = tested on: HL-60(TB) leukemia
HOP-62 NSCLC = tested on: HOP-62 NSCLC
HOP-92 NSCLC = tested on: HOP-92 NSCLC
HS 578T breast = tested on: HS 578T breast
HT29 colon = tested on: HT29 colon
IGROV1 ovarian = tested on: IGROV1 ovarian
KM12 colon = tested on: KM12 colon
LOX IMVI melanoma = tested on: LOX IMVI melanoma
M14 melanoma = tested on: M14 melanoma
MALME-3M melanoma = tested on: MALME-3M melanoma
MCF7 breast = tested on: MCF7 breast
MDA-MB-231 breast = tested on: MDA-MB-231 breast
MDA-MB-435 = tested on: MDA-MB-435
MDA-N = tested on: MDA-N
MOLT-4 leukemia = tested on: MOLT-4 leukemia
NCI-H226 lung = tested on: NCI-H226 lung
NCI-H23 lung = tested on: NCI-H23 lung
NCI-H460 lung = tested on: NCI-H460 lung
NCI/ADR-RES ovarian = tested on: NCI/ADR-RES ovarian
OVCAR-3 ovarian = tested on: OVCAR-3 ovarian
OVCAR-4 ovarian = tested on: OVCAR-4 ovarian
OVCAR-5 ovarian = tested on: OVCAR-5 ovarian
OVCAR-8 ovarian = tested on: OVCAR-8 ovarian
PC-3 prostate = tested on: PC-3 prostate
RXF 393 renal = tested on: RXF 393 renal
SF-268 CNS = tested on: SF-268 CNS
SF-295 CNS = tested on: SF-295 CNS
SF-539 CNS = tested on: SF-539 CNS
SK-MEL-2 melanoma = tested on: SK-MEL-2 melanoma
SK-MEL-28 melanoma = tested on: SK-MEL-28 melanoma
SK-MEL-5 melanoma = tested on: SK-MEL-5 melanoma
SK-OV-3 ovarian = tested on: SK-OV-3 ovarian
SN12C renal = tested on: SN12C renal
SNB-19 CNS = tested on: SNB-19 CNS
SNB-75 CNS = tested on: SNB-75 CNS
SR leukemia = tested on: SR leukemia
SW-620 colon = tested on: SW-620 colon
T-47D breast = tested on: T-47D breast
TK-10 renal = tested on: TK-10 renal
UACC-257 melanoma = tested on: UACC-257 melanoma
UACC-62 melanoma = tested on: UACC-62 melanoma
K-562 leukemia = tested on: K-562 leukemia
NCI-H522 lung = tested on: NCI-H522 lung
RPMI-8226 leukemia = tested on: RPMI-8226 leukemia
U251 CNS = tested on: U251 CNS
UO-31 renal = tested on: UO-31 renal

## O=C(Cc1ccccc1)N[C@@H]1COC(=O)C2CCCN2C(=O)[C@@H]2CCCN2C1=O (some centres not stated) (PhAc-[dS]-Pro-[ξP]; ester 1-C)
786-0 renal
  TGI: > 100 µM
A498 renal
  TGI: > 100 µM
A549 NSCLC
  TGI: > 100 µM
ACHN renal
  TGI: > 100 µM
CAKI-1 renal
  TGI: > 100 µM
CCRF-CEM leukemia
  TGI: > 100 µM
COLO 205 colon
  TGI: > 100 µM
DU-145 prostate
  TGI: > 100 µM
EKVX NSCLC
  TGI: > 100 µM
HCC-2998 colon
  TGI: > 100 µM
HCT-116 colon
  TGI: > 100 µM
HCT-15 colon
  TGI: > 100 µM
HL-60(TB) leukemia
  TGI: > 100 µM
HOP-62 NSCLC
  TGI: > 100 µM
HOP-92 NSCLC
  TGI: > 100 µM
HS 578T breast
  TGI: > 100 µM
HT29 colon
  TGI: > 100 µM
IGROV1 ovarian
  TGI: > 100 µM
KM12 colon
  TGI: > 100 µM
LOX IMVI melanoma
  TGI: > 100 µM
M14 melanoma
  TGI: > 100 µM
MALME-3M melanoma
  TGI: > 100 µM
MCF7 breast
  TGI: > 100 µM
MDA-MB-231 breast
  TGI: > 100 µM
MDA-MB-435
  TGI: > 100 µM
MDA-N
  TGI: > 100 µM
MOLT-4 leukemia
  TGI: > 100 µM
NCI-H226 lung
  TGI: > 100 µM
NCI-H23 lung
  TGI: > 100 µM
NCI-H460 lung
  TGI: > 100 µM
NCI/ADR-RES ovarian
  TGI: > 100 µM
OVCAR-3 ovarian
  TGI: > 100 µM
OVCAR-4 ovarian
  TGI: > 100 µM
OVCAR-5 ovarian
  TGI: > 100 µM
OVCAR-8 ovarian
  TGI: > 100 µM
PC-3 prostate
  TGI: > 100 µM
RXF 393 renal
  TGI: > 100 µM
SF-268 CNS
  TGI: > 100 µM
SF-295 CNS
  TGI: > 100 µM
SF-539 CNS
  TGI: > 100 µM
SK-MEL-2 melanoma
  TGI: > 100 µM
SK-MEL-28 melanoma
  TGI: > 100 µM
SK-MEL-5 melanoma
  TGI: > 100 µM
SK-OV-3 ovarian
  TGI: > 100 µM
SN12C renal
  TGI: > 100 µM
SNB-19 CNS
  TGI: > 100 µM
SNB-75 CNS
  TGI: 4.79 µM
SR leukemia
  TGI: > 100 µM
SW-620 colon
  TGI: > 100 µM
T-47D breast
  TGI: > 100 µM
TK-10 renal
  TGI: > 100 µM
UACC-257 melanoma
  TGI: > 100 µM
UACC-62 melanoma
  TGI: > 100 µM

## Cc1ccc2c(=O)cc(-c3ccc(Cl)cc3)[nH]c2n1
786-0 renal
  TGI: > 100 µM
A498 renal
  TGI: > 100 µM
A549 NSCLC
  TGI: > 100 µM
ACHN renal
  TGI: > 100 µM
CAKI-1 renal
  TGI: > 65.9 µM
CCRF-CEM leukemia
  TGI: > 100 µM
DU-145 prostate
  TGI: > 55.4 µM
EKVX NSCLC
  TGI: > 100 µM
HCC-2998 colon
  TGI: > 63 µM
HCT-116 colon
  TGI: > 32.1 µM
HCT-15 colon
  TGI: > 41.3 µM
HL-60(TB) leukemia
  TGI: 8.8 µM
HOP-62 NSCLC
  TGI: > 100 µM
HOP-92 NSCLC
  TGI: > 100 µM
HS 578T breast
  TGI: > 100 µM
HT29 colon
  TGI: > 29.4 µM
IGROV1 ovarian
  TGI: > 100 µM
K-562 leukemia
  TGI: 29.1 µM
KM12 colon
  TGI: > 100 µM
LOX IMVI melanoma
  TGI: > 100 µM
M14 melanoma
  TGI: > 100 µM
MALME-3M melanoma
  TGI: > 31.3 µM
MCF7 breast
  TGI: > 100 µM
MDA-MB-231 breast
  TGI: 19.7 µM
MDA-MB-435
  TGI: 5.5 µM
MDA-N
  TGI: 5.56 µM
MOLT-4 leukemia
  TGI: > 43.3 µM
NCI-H226 lung
  TGI: 82 µM
NCI-H23 lung
  TGI: > 100 µM
NCI-H460 lung
  TGI: > 100 µM
NCI-H522 lung
  TGI: > 100 µM
NCI/ADR-RES ovarian
  TGI: > 28.3 µM
OVCAR-3 ovarian
  TGI: > 30.2 µM
OVCAR-4 ovarian
  TGI: > 100 µM
OVCAR-5 ovarian
  TGI: > 100 µM
OVCAR-8 ovarian
  TGI: > 100 µM
PC-3 prostate
  TGI: > 20.8 µM
RPMI-8226 leukemia
  TGI: > 49.1 µM
RXF 393 renal
  TGI: > 100 µM
SF-268 CNS
  TGI: > 100 µM
SF-295 CNS
  TGI: 53.8 µM
SF-539 CNS
  TGI: 36.8 µM
SK-MEL-2 melanoma
  TGI: > 100 µM
SK-MEL-28 melanoma
  TGI: > 100 µM
SK-MEL-5 melanoma
  TGI: 14.6 µM
SK-OV-3 ovarian
  TGI: > 100 µM
SN12C renal
  TGI: > 94.8 µM
SNB-19 CNS
  TGI: > 100 µM
SNB-75 CNS
  TGI: > 27.9 µM
SR leukemia
  TGI: > 100 µM
SW-620 colon
  TGI: > 100 µM
T-47D breast
  TGI: 26.3 µM
TK-10 renal
  TGI: > 100 µM
U251 CNS
  TGI: > 59.9 µM
UACC-257 melanoma
  TGI: > 67.7 µM
UACC-62 melanoma
  TGI: > 100 µM
UO-31 renal
  TGI: > 66.8 µM

## Cc1[nH]n(-c2ncc(C#N)c(=O)[nH]2)c(=O)c1CCO
786-0 renal
  TGI: > 100 µM
A498 renal
  TGI: > 100 µM
A549 NSCLC
  TGI: > 100 µM
ACHN renal
  TGI: > 100 µM
CAKI-1 renal
  TGI: > 100 µM
CCRF-CEM leukemia
  TGI: > 100 µM
COLO 205 colon
  TGI: > 100 µM
DU-145 prostate
  TGI: > 100 µM
EKVX NSCLC
  TGI: > 100 µM
HCC-2998 colon
  TGI: > 100 µM
HCT-116 colon
  TGI: > 100 µM
HCT-15 colon
  TGI: > 100 µM
HOP-62 NSCLC
  TGI: > 100 µM
HOP-92 NSCLC
  TGI: > 100 µM
HS 578T breast
  TGI: > 100 µM
HT29 colon
  TGI: > 100 µM
IGROV1 ovarian
  TGI: > 100 µM
K-562 leukemia
  TGI: > 100 µM
KM12 colon
  TGI: > 100 µM
LOX IMVI melanoma
  TGI: > 100 µM
M14 melanoma
  TGI: > 100 µM
MALME-3M melanoma
  TGI: > 100 µM
MCF7 breast
  TGI: > 100 µM
MDA-MB-231 breast
  TGI: > 100 µM
MDA-MB-435
  TGI: > 100 µM
MDA-N
  TGI: > 100 µM
MOLT-4 leukemia
  TGI: > 100 µM
NCI-H226 lung
  TGI: > 100 µM
NCI-H23 lung
  TGI: > 100 µM
NCI-H460 lung
  TGI: > 100 µM
NCI-H522 lung
  TGI: > 100 µM
NCI/ADR-RES ovarian
  TGI: > 100 µM
OVCAR-3 ovarian
  TGI: > 100 µM
OVCAR-4 ovarian
  TGI: > 100 µM
OVCAR-5 ovarian
  TGI: > 100 µM
OVCAR-8 ovarian
  TGI: > 100 µM
PC-3 prostate
  TGI: > 100 µM
RPMI-8226 leukemia
  TGI: > 100 µM
RXF 393 renal
  TGI: > 100 µM
SF-268 CNS
  TGI: > 100 µM
SF-295 CNS
  TGI: > 100 µM
SF-539 CNS
  TGI: > 100 µM
SK-MEL-2 melanoma
  TGI: > 100 µM
SK-MEL-28 melanoma
  TGI: > 100 µM
SK-MEL-5 melanoma
  TGI: > 100 µM
SK-OV-3 ovarian
  TGI: > 100 µM
SN12C renal
  TGI: > 100 µM
SNB-19 CNS
  TGI: > 100 µM
SNB-75 CNS
  TGI: 99 µM
SR leukemia
  TGI: > 100 µM
SW-620 colon
  TGI: > 100 µM
T-47D breast
  TGI: > 100 µM
TK-10 renal
  TGI: > 100 µM
U251 CNS
  TGI: > 100 µM
UACC-257 melanoma
  TGI: > 100 µM
UACC-62 melanoma
  TGI: > 100 µM
UO-31 renal
  TGI: > 100 µM
